Tests used:
Type in all cases: cell-based
IKZF3 Aiolos [1] = target: T1, IKZF3 Aiolos (Homo sapiens, UniProt Q96SW2+Q9UKT9); assay: Human CD8+ T Cell Reprogramming Assay (method headed Human CD8+ T Cell Degradation Assay); design: HELIOS-PE-Cy7, EOS-PE, IKAROS-PECF594, AIOLOS-AF647; endogenous in cells; host or cells: healthy-donor human PBMC; CD8+ T cells analysed by flow cytometry; details: CD8+ T cells in human PBMC, 24 hours; for IKZF3 Aiolos Maximum Observed Degradation: flow cytometry; for DC50: 50% reduction vs DMSO
T1 sequence (Q9UKT9 whole entry): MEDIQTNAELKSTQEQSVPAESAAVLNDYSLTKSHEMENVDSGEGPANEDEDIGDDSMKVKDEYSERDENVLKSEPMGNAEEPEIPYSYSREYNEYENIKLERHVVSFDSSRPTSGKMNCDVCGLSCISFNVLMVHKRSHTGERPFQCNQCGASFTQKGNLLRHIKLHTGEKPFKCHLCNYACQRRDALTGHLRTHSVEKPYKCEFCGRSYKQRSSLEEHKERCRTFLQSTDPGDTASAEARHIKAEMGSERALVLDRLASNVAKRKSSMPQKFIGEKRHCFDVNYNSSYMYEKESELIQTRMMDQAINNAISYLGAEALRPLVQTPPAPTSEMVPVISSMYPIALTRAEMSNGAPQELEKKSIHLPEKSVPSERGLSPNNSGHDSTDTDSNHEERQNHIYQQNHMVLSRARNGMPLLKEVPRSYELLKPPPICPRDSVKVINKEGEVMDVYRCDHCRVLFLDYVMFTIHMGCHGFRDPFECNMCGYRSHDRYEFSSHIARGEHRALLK
T1 sequence (Q96SW2 whole entry): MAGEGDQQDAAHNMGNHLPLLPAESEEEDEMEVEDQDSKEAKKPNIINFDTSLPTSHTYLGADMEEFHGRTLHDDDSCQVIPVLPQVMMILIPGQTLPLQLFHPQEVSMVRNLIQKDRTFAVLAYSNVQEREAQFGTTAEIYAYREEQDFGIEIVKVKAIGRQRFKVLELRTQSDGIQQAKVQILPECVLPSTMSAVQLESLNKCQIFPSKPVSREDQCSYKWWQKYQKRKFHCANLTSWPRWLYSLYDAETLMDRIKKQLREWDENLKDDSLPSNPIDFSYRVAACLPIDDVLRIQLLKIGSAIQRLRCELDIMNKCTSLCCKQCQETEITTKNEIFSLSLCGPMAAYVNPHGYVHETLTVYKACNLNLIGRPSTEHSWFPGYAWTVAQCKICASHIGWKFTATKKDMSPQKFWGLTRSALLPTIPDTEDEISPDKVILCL
T1 sequence (Q16531 whole entry partner): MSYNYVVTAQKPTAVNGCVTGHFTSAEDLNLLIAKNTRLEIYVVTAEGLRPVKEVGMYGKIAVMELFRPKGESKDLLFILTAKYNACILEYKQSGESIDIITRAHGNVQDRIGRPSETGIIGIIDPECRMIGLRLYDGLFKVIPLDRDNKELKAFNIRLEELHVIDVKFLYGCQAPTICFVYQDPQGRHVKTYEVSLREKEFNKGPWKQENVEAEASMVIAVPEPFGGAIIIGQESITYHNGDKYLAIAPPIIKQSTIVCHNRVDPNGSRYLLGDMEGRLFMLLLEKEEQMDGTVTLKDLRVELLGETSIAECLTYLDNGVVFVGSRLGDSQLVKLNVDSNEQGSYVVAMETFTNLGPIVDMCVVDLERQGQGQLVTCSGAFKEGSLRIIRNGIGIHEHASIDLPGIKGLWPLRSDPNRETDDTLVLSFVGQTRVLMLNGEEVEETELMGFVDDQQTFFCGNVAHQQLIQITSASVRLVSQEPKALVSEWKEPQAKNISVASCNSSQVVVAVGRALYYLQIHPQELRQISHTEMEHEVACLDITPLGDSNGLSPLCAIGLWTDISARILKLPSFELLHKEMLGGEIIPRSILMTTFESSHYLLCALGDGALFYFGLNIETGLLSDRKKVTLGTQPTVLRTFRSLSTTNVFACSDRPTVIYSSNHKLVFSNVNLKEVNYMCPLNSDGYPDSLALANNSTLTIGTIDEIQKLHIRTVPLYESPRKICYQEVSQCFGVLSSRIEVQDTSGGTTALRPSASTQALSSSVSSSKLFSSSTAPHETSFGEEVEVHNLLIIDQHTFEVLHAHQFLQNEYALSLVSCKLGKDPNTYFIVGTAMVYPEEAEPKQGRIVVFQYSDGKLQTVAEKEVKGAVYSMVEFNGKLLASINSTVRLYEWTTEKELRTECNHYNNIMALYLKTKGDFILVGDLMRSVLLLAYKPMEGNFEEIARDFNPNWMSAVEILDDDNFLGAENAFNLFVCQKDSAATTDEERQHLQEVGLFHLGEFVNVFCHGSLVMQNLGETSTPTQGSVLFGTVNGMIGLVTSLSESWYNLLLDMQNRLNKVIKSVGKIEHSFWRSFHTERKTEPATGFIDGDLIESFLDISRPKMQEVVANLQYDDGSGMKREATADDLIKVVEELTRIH
Description: (§1) Cryopreserved healthy donor human peripheral blood mononuclear cells (PBMC; obtained from Stemcell Technologies or Blood Works Northwest) from two healthy donors were thawed and seeded at 500,000 cells/well of 96-well round bottom plates in RPMI 1640 media (Gibco) supplemented with 10% FBS, Pen/Strep (Gibco), MEM-NEAA (Gibco), and sodium pyruvate (Gibco). Cells were treated with titrated doses of compound for 24 hours at 37° C., 5% CO2 before analyzing by flow cytometry.
(§2) For flow cytometry staining, cells were washed twice with flow cytometry staining buffer (Thermo Fisher) and incubated in Human Tru-stain Fc block (Biolegend) for 10 minutes before adding eFluor780 viability dye (Thermo Fisher) and surface marker antibody cocktail containing LD-eFluor780, CD3-BUV-395, CD4-BUV805, CD8-FITC, CD25-BV605, FoxP3-BV421, HELIOS-PE-Cy7, EOS-PE, IKAROS-PECF594, AIOLOS-AF647 for 30 minutes at 4° C. Cells were then fixed and permeabilized by incubation with permeabilization buffer (eBioscience FoxP3 buffer set 00-5523-00) for 30 minutes at 4° C., as per the kit manufacturer's instructions. Cells were washed twice with the Perm/Wash buffer suppled in the kit as per the manufacturer's instructions and incubated overnight at 4° C. with an intracellular antibody cocktail comprised of antibodies specific for the transcription factors shown in Table C. Cells were washed twice with Perm/Wash buffer and resuspended in flow cytometry staining buffer (Thermo Fisher) prior to acquisition. Sample acquisition and analysis was performed using a BD LSRFortessa (BD Biosciences) flow cytometer. Single stain controls for each fluorochrome were prepared using UltraComp eBead Compensation Beads (Thermo Fisher). Data were analyzed using FlowJo version 10 and GraphPad Prism Software.

IKZF1 Ikaros [2] = target: T2, IKZF1 Ikaros (Homo sapiens, UniProt Q13422+Q96SW2); assay: as above; design: HELIOS-PE-Cy7, EOS-PE, IKAROS-PECF594, AIOLOS-AF647; endogenous in cells; host or cells: healthy-donor human PBMC; CD8+ T cells analysed by flow cytometry; details: CD8+ T cells in human PBMC, 24 hours; for IKZF1 Ikaros Maximum Observed Degradation: flow cytometry; for DC50: 50% reduction vs DMSO
T2 sequence (Q13422 whole entry): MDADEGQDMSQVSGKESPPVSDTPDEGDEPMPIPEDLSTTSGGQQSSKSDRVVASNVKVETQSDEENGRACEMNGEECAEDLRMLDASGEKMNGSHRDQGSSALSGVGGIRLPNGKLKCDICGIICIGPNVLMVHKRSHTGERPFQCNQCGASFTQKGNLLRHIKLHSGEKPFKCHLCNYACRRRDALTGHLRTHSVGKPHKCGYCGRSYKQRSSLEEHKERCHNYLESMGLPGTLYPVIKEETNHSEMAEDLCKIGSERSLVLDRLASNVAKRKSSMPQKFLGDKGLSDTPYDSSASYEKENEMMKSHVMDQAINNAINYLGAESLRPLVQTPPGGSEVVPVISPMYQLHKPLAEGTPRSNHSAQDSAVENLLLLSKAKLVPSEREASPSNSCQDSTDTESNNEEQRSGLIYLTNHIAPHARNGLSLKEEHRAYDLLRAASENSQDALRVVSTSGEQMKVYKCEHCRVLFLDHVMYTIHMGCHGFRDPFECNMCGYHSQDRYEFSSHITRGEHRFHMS
T2 sequence (Q96SW2 whole entry): as the sequence (Q96SW2 whole entry) above
T2 sequence (Q16531 whole entry partner): as the sequence (Q16531 whole entry partner) above
Description: as §1, §2

IKZF4 Eos = target: T3, IKZF4 Eos (Homo sapiens, UniProt Q96SW2+Q9H2S9); assay: Human T Regulatory Cells Reprogramming Assay; details: sorted human Treg cells, 12-13 days; 50% reduction vs DMSO
T3 construct: endogenous in cells; host or cells: primary human CD4+CD127lowCD25+ Treg cells sorted from healthy-donor leukopaks
T3 sequence (Q9H2S9 whole entry): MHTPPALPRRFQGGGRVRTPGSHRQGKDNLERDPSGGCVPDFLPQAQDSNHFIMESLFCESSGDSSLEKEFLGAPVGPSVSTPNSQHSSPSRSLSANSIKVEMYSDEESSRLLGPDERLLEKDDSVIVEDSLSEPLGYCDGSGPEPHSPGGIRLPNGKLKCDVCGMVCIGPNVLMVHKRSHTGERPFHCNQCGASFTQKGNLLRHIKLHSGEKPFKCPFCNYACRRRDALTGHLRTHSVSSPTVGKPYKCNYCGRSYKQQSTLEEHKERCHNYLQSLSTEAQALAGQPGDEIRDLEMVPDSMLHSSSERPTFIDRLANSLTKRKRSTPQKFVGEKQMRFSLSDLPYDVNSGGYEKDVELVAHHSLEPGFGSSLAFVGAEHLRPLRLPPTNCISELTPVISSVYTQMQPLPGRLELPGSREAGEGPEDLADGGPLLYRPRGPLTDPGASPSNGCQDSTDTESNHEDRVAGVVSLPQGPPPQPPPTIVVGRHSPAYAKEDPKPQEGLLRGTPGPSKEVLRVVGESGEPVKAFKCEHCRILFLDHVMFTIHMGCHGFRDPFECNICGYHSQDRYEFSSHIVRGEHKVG
T3 sequence (Q96SW2 whole entry): as the sequence (Q96SW2 whole entry) above
T3 sequence (Q16531 whole entry partner): as the sequence (Q16531 whole entry partner) above
Description: (§3) Human CD4^+ T cells were isolated from fresh healthy leukopaks (Stemcell Technologies) using the RosetteSep Human CD4^+ T cell enrichment cocktail (Stemcell Technologies) and Ficoll density gradient centrifugation. Leukopaks were diluted with an equal volume of phosphate-buffered saline (PBS [Gibco]) supplemented with 2% fetal bovine serum (FBS, VWR Lifescience) and incubated with RosetteSep Human CD4^+ T cell enrichment cocktail for 20 minutes before layering on Ficoll-Paque Plus solution (GE Health Care). The cell-rich interface layer was harvested and washed twice with PBS supplemented with 2% FBS. Regulatory T cells were then isolated manually using the EasySep Human CD4^+CD127^lowCD25^+ Regulatory T cell isolation kit (Stemcell Technologies) according to the manufacturer's instructions. Cells were rested overnight in Roswell Park Memorial Institute (RPMI) 1640 media (Gibco) supplemented with 10% FBS, Pen/Strep (Gibco), MEM-NEAA (Gibco), and sodium pyruvate (Gibco) in a humidified incubator (37° C., 5% CO2). […]
(§4) For flow cytometry staining, cells were washed twice with flow cytometry staining buffer (Thermo Fisher) and incubated in Human Tru-stain Fc block (Biolegend) for 10 minutes before adding eFluor780 viability dye (Thermo Fisher) and surface marker antibody cocktail for 30 minutes at 4° C. […] Data were analyzed using FlowJo version 10 and GraphPad Prism Software.

IKZF2 Helios [3] = target: T4, IKZF2 Helios (Homo sapiens, UniProt Q96SW2+Q9UKS7); assay: Human T Regulatory Cells Reprogramming Assay; design: endogenous in cells; host or cells: primary human CD4+CD127lowCD25+ Treg cells sorted from healthy-donor leukopaks; details: sorted human Treg cells, 12-13 days; 50% reduction vs DMSO
T4 sequence (Q9UKS7 whole entry): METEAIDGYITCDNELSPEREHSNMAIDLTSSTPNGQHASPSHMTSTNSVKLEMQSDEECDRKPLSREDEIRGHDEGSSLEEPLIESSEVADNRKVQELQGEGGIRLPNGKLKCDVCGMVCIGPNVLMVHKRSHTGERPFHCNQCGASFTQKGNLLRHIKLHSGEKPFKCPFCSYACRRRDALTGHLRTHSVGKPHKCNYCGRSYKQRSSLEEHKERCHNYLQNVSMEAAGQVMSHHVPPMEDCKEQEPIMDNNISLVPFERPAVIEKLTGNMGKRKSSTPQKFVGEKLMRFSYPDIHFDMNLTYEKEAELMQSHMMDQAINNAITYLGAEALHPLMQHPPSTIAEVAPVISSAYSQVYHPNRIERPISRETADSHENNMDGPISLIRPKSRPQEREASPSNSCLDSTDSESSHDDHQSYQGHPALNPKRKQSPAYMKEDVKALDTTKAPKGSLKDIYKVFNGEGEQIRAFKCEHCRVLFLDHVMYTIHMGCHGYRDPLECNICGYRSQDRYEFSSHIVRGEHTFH
T4 sequence (Q96SW2 whole entry): as the sequence (Q96SW2 whole entry) above
T4 sequence (Q16531 whole entry partner): as the sequence (Q16531 whole entry partner) above
Description: as §3, §4

IKZF1 Ikaros [4] = target: T2, IKZF1 Ikaros; assay: Human T Regulatory Cells Degradation Assay; design: HELIOS-PE-Cy7, EOS-PE, IKAROS-PECF594, AIOLOS-AF647; endogenous in cells; details: 20 hours
IKZF2 Helios [5] = target: T4, IKZF2 Helios; assay: Human T Regulatory Cells Degradation Assay; design: endogenous in cells; host or cells: primary human CD4+CD127lowCD25+ Treg cells sorted from healthy-donor leukopaks; details: 20 hours
Description: Cryopreserved human T regulatory cells were thawed in RPMI+10% FBS+20 ng/mL IL-2. After being spun at 1200 rpm for 5 mins, the cells were resuspended in RPMI+10% FBS+20 ng/mL and rested at 37° C. with 5% CO2 for 3 hours. The cells were then plated at 40,000 cells/well in 40 μL RPMI+10% FBS+20 ng/mL human IL-2 in a 384 well cell culture plate prior to using acoustic dispensing technology (ECHO 555) for adding compounds of interest. Cell cultures were incubated for 20 hours at 37° C., and 5% CO2. In order to facilitate analysis, cell cultures were spun down at 1200 rpm for 5 minutes and the supernatant was discarded using an EL406 plate washer. After washing three times with 70 μL PBS, cell pellets were resuspended in 50 μL of near IR viability staining solution (Life Technologies, Cat #L34975) and incubated for 30 minutes on ice protected from light. Cells were washed three times with […] PBS+0.5% BSA using an EL406 plate washer. After shaking the plate to dislodge the cell pellet, cells were resuspended in 50 μL of Fixation Buffer (eBioScience FoxP3 buffer set 00-5523-00) for 60 minutes at room temperature. […] Stained cells were resuspended in 30 μL of flow cytometry staining buffer (PBS+0.5% BSA) and analyzed using an Intellicyt Ique Plus flow cytometer.

IKZF3 Aiolos [6] = target: T1, IKZF3 Aiolos; assay: Jurkat Cellular Degradation Assay; details: Jurkat cells, 72 h; for IKZF3 Aiolos max % deg. observed: flow cytometry, 100% = complete degradation
Description: (§5) Jurkat cells were plated at 80,000 cells/well in 40 μL RPMI+10% FBS in a 384-well cell culture plate prior to using acoustic dispensing technology for adding a compound of interest. Cell cultures were incubated for 72 h at 37° C., and 5% CO2. In order to facilitate analysis, cell cultures were spun down at 200 rpm for 5 min and the supernatant was discarded. After shaking the plate to dislodge the cell pellet, cells were resuspended in 50 qL of Fixation Buffer (eBioscience FoxP3 buffer set 00-5523-00) for 60 min at room temperature. After centrifuging and discarding the supernatant, cells were permeabilized with 50 μL of Permeabilization buffer (eBioscience FoxP3 buffer set 00-5523-00) for 10 min at room temperature. Following permeabilization, cells were spun down and the supernatant was replaced with 20 μL fluorescently labelled antibodies against Helios, Ikaros and Aiolos or corresponding Isotype controls in 1-Penneabilization buffer (Ikaros-Alexa488 [Biolegend, Cat #368408, 1:50], Helios-PE [CST, Cat #29360, 1:50], Aiolos-Alexa647 [Biolegend, Cat #371106 Biolegend, 1:25]) and staining reactions were incubated for 1 h at room temperature while protected from light. Subsequently, 30 μL of 1× Permeabilization buffer was added prior to centrifuging the cells and discarding the supernatant. Stained cells were resuspended in 25 μL of flow cytometry staining buffer [PBS+0.2% bovine serum albumin (BSA)] and analyzed using an Intellicyt Ique Plus flow cytometer.

IKZF2 Helios [7] = target: T4, IKZF2 Helios; assay: Jurkat Cellular Degradation Assay; design: endogenous in cells; details: Jurkat cells, 72 h; concentration reducing protein by 50% vs DMSO
Description: as §5, with “Subsequently, 30 μL of 1× Permeabilization buffer was added prior to centrifuging the cells and discarding the supernatant.” left out

IKZF1 Ikaros [8] = target: T2, IKZF1 Ikaros; assay: Jurkat Cellular Degradation Assay; design: HELIOS-PE-Cy7, EOS-PE, IKAROS-PECF594, AIOLOS-AF647; endogenous in cells; details: Jurkat cells, 72 h; for IKZF1 Ikaros max % deg. observed: flow cytometry, 100% = complete degradation
Description: as §5

[9] = concentration reducing protein by 50% vs DMSO

SMILES | IKZF3 Aiolos Maximum Observed Degradation (IKZF3 Aiolos [1]) [%] | DC50 (IKZF3 Aiolos [1]) [nM] | IKZF1 Ikaros Maximum Observed Degradation (IKZF1 Ikaros [2]) [%] | DC50 (IKZF1 Ikaros [2]) [nM] | DC50 (IKZF4 Eos) [nM] | DC50 (IKZF2 Helios [3]) [nM] | DC50 (IKZF1 Ikaros [4]; 50% reduction vs DMSO) [nM] | IKZF1 Ikaros max % deg. observed (IKZF1 Ikaros [4]; flow cytometry) [%] | DC50 (IKZF2 Helios [5]; 50% reduction vs DMSO) [nM] | IKZF2 Helios max % deg. observed (IKZF2 Helios [5]; flow cytometry) [%] | IKZF3 Aiolos max % deg. observed (IKZF3 Aiolos [6]) [%] | DC50 (IKZF3 Aiolos [6]; [9]) [nM] | DC50 (IKZF2 Helios [7]) [nM] | IKZF1 Ikaros max % deg. observed (IKZF1 Ikaros [8]) [%] | DC50 (IKZF1 Ikaros [8]; [9]) [nM]
[2H]C1([2H])C(=O)NC(=O)C([2H])(n2cc(-c3ccc(-c4cc(C)c(C)c(N)n4)cc3F)oc2=O)C1([2H])[2H] (stereo not drawn) [Example 2, 3-(5-(4-(6-amino-4,5-dimethylpyridin-2-yl)-2-fluorophenyl)-2-oxooxazol-3(2H)-yl) piperidine-2,6-dione-3,4,4,5,5-D5] | 71 | 26 | 66 | 139 | 0.63 | 42 |  |  |  |  |  |  |  |  | 
Cc1cc(-c2ccc(-c3cn(C4CCC(=O)NC4=O)c(=O)o3)c(F)c2)nc(N)c1C (stereo not drawn) [Example 1, 3-(5-(4-(6-Amino-4,5-dimethylpyridin-2-yl)-2-fluorophenyl)-2-oxooxazol-3(2H)-yl) piperidine-2,6-dione] | 77 | 19 | 74 | 102 | 1.5 | 85 | 5470 | 55 | 5.2 | 99 | 54 | 4920 | 13.6 | 66 | 1080
O=C1CCC(n2cc(-c3ccc(Br)cc3F)oc2=O)C(=O)N1 (stereo not drawn) [Comparative Compound B, 3-(5-(4-bromo-2-fluorophenyl)-2-oxooxazol-3(2H)-yl)piperidine-2,6-dione, reference compound] |  |  |  |  |  |  |  |  |  |  | 15 |  |  |  | 
O=C1CCC(n2cc(-c3ccccc3)oc2=O)C(=O)N1 (stereo not drawn) [Comparative Compound A, 3-(2-oxo-5-phenyloxazol-3(2H)-yl)piperidine-2,6-dione, reference compound] |  |  |  |  |  |  |  |  |  |  | 46 |  |  | 57 | 

Reference: patent US12331045B2, “Substituted phenyl oxazolone compounds” (Bristol-Myers Squibb Company, priority 2023, dated 2025)
